# Columns and labels:
# [1] = tested on: dead bacterial cells of ice nucleation active bacteria (Erwinia ananas); assay: supercooling activity (droplet freezing on cooled copper plate, temperature at which 50% of droplets are frozen); assay type: physicochemical; conditions: cooling 0.2° C./min; for supercooling activity (difference of freezing point vs buffer with ice nucleation bacteria only): 0.5 mg/mL test sample, 50 mM potassium phosphate buffer pH 7.0, 2 μL droplets; for supercooling activity: 0.1 mg/mL test compound, otherwise as example 1
# Procedure: The supercooling activity (or represented as inhibiting activity of ice nucleus formation) is the value measured by the following method. […] A large number of 2 μL droplets of the solution are put on a cupper plate, which is temperature-controllable. Then, the cupper plate is cooled at the rate of 0.2° C./min, the number of frozen droplets are counted macroscopically and the temperature, wherein 50% of droplets are frozen, is defined as freezing point. The supercooling activity is defined as the difference (° C.) between the freezing point of solution containing test sample and ice nucleation active bacteria, and that of solution containing only ice nucleation bacteria and buffer solution.
# The supercooling activities of these samples were measured by the following methods. After a buffer solution (50 mM potassium phosphate buffer, pH 7.0) containing dead bacterial cells (Wako pure chemical industries Ltd.,) of ice nucleation active bacteria (Erwinia ananas) mixed with 0.5 mg/mL of a test sample, 2 μL droplets of the solution are put on a cupper plate, which is temperature-controllable. Then, the cupper plate is cooled at the rate of 0.2° C./min, the number of frozen droplets are counted macroscopically and the temperature, wherein 50% of droplets are frozen, is defined as freezing point. The difference (° C.) between the freezing point and that of the buffer solution was measured.
# [2] = tested on: cranberry shoot apexes (buds); assay: survival of cranberry shoot apexes after vitrification in liquid nitrogen and thawing; conditions: 0.05% by weight in 75% vitrification liquid (75% PVS2); liquid nitrogen overnight, thawed at room temperature; FIG. 9A vs 9B
# Procedure: As a vitrification liquid, 75% dilution solution of PVS2 liquid (22.5% by volume glycerol, 11.25% by volume of ethyleneglycol, 11.25% by volume of DMSO, […], the remainder was Murashige & Skoog medium, DUCHEFA BIOCHEMIE BV) supplemented with 0.05% by weight of kaempferol-7-O-glucoside (compound 2, Extrasynthese Co.) was used (hereinafter referred to as “75% vitrification liquid”).
# For comparison, a mixed solution without kaempferol-7-O-glucoside was prepared. Shoot apexes (buds) are isolated from cranberry (subcultured in Hokkaido University, Graduate School of Agriculture) and dipped in the above mixed solution at room temperature.
# On the other hand, survival of shoot apexes, which were dipped in 75% vitrification liquid containing kaempferol-7-O-glucoside at room temperature for a specified loading time, put into liquid nitrogen, frozen for overnight, and then thawed at room temperature, is shown in frozen batch of FIG. 9A. Similarly, survival of the apexes, which were dipped in a vitrification liquid without kaempferol-7-O-glucoside and frozen, is shown in frozen batch of FIG. 9B.
# [3] = tested on: pig liver cells; assay: viability of pig liver cells after supercooled storage (trypan blue staining); assay type: cell-based; conditions: 0.01% by weight in UW liquid with 1% by volume DMSO; −5° C. and −8° C.; 1, 4 and 7 days; FIG. 8
# Procedure: The storage liquid was prepared by adding 0.01% by weight of kaempferol-7-glucoside (compound 2 (Cj5)), Extrasynthese Co.) and 1% by volume of DMSO (Wako pure chemical industries Ltd., guaranteed reagent) to a buffer solution (UW liquid, 100 mM lactobionic acid, 25 mM KH2PO4, 5 mM MgSO4, 30 mM raffinose, 2.5 mM adenosine, 3 mM GSH, 1 mM allopurinol, 0.25 mg/mL streptomycin, 10 UI/mL penicillin).
# For comparison, a mixed solution (UW liquid) without kaempferol-7-O-glucoside and DMSO was prepared.
# The viability of cells was evaluated by trypan blue (GIBCO) staining, when pig liver cells 5×10^6 cells/mL were dipped in 0.5 cc of the above storage liquid, supercooled at −5° C. and at −8° C., and stored for 1, 4 and 7 days.
SMILES,supercooling activity [1],supercooling activity (difference of freezing point vs buffer with ice nucleation bacteria only) [1],other results
"O=c1c(OC2OC(CO)[C@@H](O)C(O)[C@H]2O)c(-c2ccc(O)c(O)c2)oc2cc(O)cc(O)c12 (stereo partly drawn) [compound 1, quercetin-3-O-β-glucoside]",,−1.8 °C,
"O=c1c(O)c(-c2ccc(O)cc2)oc2cc(OC3OC(CO)[C@@H](O)C(O)[C@H]3O)cc(O)c12 (stereo partly drawn) [compound 2, kaempherol-7-O-β-glucoside]",,−7.7 °C,survival of shoot apexes after freezing (damage due to freezing) [2]: significantly reduced the damage due to freezing; viability of cells after supercooled storage [3]: enables storage of viable animal cells for long-term
"COc1c(O)cc(O)c2c(=O)c(OC3OC(CO)[C@@H](O)C(O)[C@H]3O)c(-c3ccc(O)cc3)oc12 (stereo partly drawn) [compound 3, 8-methoxykaempferol-3-O-β-glucoside]",,−0.2 °C,
"O=c1c(OC2OC(CO)[C@@H](O)C(O)[C@H]2O)c(-c2ccc(O)cc2)oc2cc(O)cc(O)c12 (stereo partly drawn) [compound 4, kaempferol-3-O-β-glucoside]",,−2.5 °C,

# The next lines start with results.
supercooling activity [1],SMILES,supercooling activity (difference of freezing point vs buffer with ice nucleation bacteria only) [1],other results
−4.5 °C,"O=c1cc(-c2ccccc2)oc2cc(O[C@@H]3O[C@H](CO)[C@@H](O)[C@H](O)[C@H]3O)cc(O)c12 [compound 5, Chrycin-7-O-β-D-glucopyranoside]",,
−12.0 °C,"O=c1cc(-c2ccc(O)cc2)oc2cc(O[C@@H]3O[C@H](CO)[C@@H](O)[C@H](O)[C@H]3O)cc(O)c12 [compound 6, apigenin 7-O-β-D-glucopyranoside]",,
−4.9 °C,"O=c1cc(-c2ccc(O[C@@H]3O[C@H](CO)[C@@H](O)[C@H](O)[C@H]3O)cc2)oc2cc(O[C@@H]3O[C@H](CO)[C@@H](O)[C@H](O)[C@H]3O)cc(O)c12 [compound 7, apigenin 4′, 7-di-O-β-D-glucopyranoside]",,
−1.8 °C,"C[C@@H]1O[C@@H](O[C@H]2[C@H](Oc3cc(O)c4c(=O)cc(-c5ccc(O)cc5)oc4c3)O[C@H](CO)[C@@H](O)[C@@H]2O)[C@H](O)[C@H](O)[C@H]1O [compound 8, apigenin 7-O-β-neohesperidoside]",,

# Reference: patent publication US20090302265A1, “Supercooling promoting agent” (priority 2006, published 2009)
